The values below come from BindingDB's records for patent US20230159469 (Txinno Bioscience, 2023).

The target in the test is T1, Ectonucleotide pyrophosphatase/phosphodiesterase family member 1 (Homo sapiens, UniProt P22413).
T1 sequence (P22413 whole entry): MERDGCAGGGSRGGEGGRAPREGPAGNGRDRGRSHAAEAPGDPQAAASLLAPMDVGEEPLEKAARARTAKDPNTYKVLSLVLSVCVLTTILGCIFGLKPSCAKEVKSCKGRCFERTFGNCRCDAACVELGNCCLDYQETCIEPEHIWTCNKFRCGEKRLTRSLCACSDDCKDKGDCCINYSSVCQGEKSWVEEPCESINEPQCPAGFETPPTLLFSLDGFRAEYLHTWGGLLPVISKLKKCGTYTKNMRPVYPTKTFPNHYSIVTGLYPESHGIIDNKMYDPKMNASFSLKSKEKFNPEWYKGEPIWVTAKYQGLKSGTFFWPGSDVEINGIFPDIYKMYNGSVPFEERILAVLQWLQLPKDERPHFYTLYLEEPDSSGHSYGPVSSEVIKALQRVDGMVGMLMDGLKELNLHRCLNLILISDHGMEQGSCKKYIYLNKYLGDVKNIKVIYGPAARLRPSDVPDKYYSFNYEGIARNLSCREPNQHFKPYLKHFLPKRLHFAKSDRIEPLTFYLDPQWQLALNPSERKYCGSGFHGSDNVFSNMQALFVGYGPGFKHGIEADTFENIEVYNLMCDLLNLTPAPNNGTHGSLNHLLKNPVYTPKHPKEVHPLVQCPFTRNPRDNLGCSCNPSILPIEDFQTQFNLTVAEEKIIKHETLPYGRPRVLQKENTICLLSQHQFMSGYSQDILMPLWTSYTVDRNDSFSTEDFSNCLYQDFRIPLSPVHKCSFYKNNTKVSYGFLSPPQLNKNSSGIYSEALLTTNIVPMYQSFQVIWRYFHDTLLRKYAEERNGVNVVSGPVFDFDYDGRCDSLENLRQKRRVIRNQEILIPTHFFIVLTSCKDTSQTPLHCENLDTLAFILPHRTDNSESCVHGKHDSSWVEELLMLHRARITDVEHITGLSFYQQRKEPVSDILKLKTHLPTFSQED
The test is described as follows: ENPP1 Enzyme Assay with eGAMP Substrate. The procedure: ENPP1 hydrolyzes nucleotides or nucleotide derivatives to produce nucleoside -5′-monophosphate and pyrophosphate. in addition, ENPP1 hydrolyzes 2′,3′-cGAMP to produce 5′-adenosine monophosphate (AMP) and 5′-guanosine monophosphate (GMP). AMP produced from the reaction is measured using the AMP-Glo kit (Promega). The AMP-Glo kit contains two reagents. The first reagent terminates the AMP-producing enzymatic reaction, removes ATP and converts the produced AMP into ADP. The second reagent converts ADP to ATP which is used to generate luminescence in the luciferase reaction. […] CaCl2, 1 μM ZnCl2, 5% glycerol and 1% DMSO. […] The reaction was initiated by addition of cGAMP (at a final concentration of 5 μM) and reacted at 37 C. for 90 minutes. At the end of the reaction, 10 μl of the AMP-Glo first reagent was added to stop the reaction and the result was stored at room temperature for […]. After storage, 20 μl of an AMP detection solution (a mixture of AMP-Glo II reagent and Kinase-Gio at a ratio of 1:100) was added and stored at room. temperature for 1 hour. Luminescence signals were measured using a Victor plate reader (Perkin Elmer). The maximal activity control (containing enzymes and substrates only in the presence of 1% DMSO; MAX) and the minimal activity control (containing substrates and 1% DMSO; MIN) were evaluated simultaneously. In each experiment, serially diluted reference ENPP1 inhibitors were tested together. IC50, indicating % residual activity versus compound concentration was determined by fitting inhibition curves using the 3-parameter analysis of GraphPad Prism software. Serially diluted samples of one compound were tested two or more times and an average IC50 of each compound was calculated.

Turning to `N=S(=O)(O)NCc1ccc(-c2n[nH]c(=O)c3ccccc23)cc1` [US20230159469, Example 96], the IC50 (as a rule, the concentration needed to halve the response being measured) is less than 1000 nM.

On to `COc1cc2c(-c3ccc(CNS(=N)(=O)O)cc3)nn(C)c(=O)c2cc1OC` [US20230159469, Example 108], for which the half-inhibitory concentration (IC50) is not below 1000 nM.

As for `NS(=O)(=O)Nc1cccc(-c2n[nH]c(=O)c3ccccc23)c1` [US20230159469, Example 87], the IC50 was less than 1000 nM.
